# Test results: US20240336602A1 (Katholieke Universiteit Leuven, priority 2020, published 2024)
# Target: T1, mouse TRPM3a2 (mTRPM3) ion channel (Mus musculus, UniProt J9SQF3)
# T1 construct: expressed in transfected cells; host or cells: flip-in HEK293
# Experiment: TRPM3 ion channel driven Ca2+ uptake, Fluo-4 AM assay (PS-stimulated, overexpressing flip-in HEK293 cells)
# Format: cell-based
# Settings: PS (50 μM) stimulated, cpds. 400-499
# Experimental: In order to monitor the inhibition of the mouse TRPM3a2 (mTRPM3) ion channel by the compounds of the invention, a cellular system making use of an mTRPM3alpha2 or hTRPM3 overexpressing cell line (flip-in HEK293) was used. The TRPM3 channel was stimulated/opened with Pregnenolone sulfate (PS) (50 μM) which results in Ca^2+ influx.
# For mTRPM3, the intracellular Ca^2+ was measured with a Calcium responsive dye, Fluor-4 AM ester (Invitrogen). Cells were cultured until a confluence of 80-90%, washed with Versene (Invitrogen) and detached from the surface by a short incubation with 0.05% Trypsin (Invitrogen). The trypsination process was stopped by the addition of complete cell culture medium (DMEM, glutamax, 10% FCS, NEAA, Pen-Strep). Cells were collected and resuspended in Krebs buffer without Calcium at RT.
# Prior the cell seeding (±2000 cells/well into a black, 384 well plate (Greiner)) the diluted compound was added in the assay plate, together with the PS dissolved in Krebs buffer containing Calcium. […] Directly after cell addition the plates were read on an Envision fluorescence reader (Perkin Elmer) by an Excitation of 485 nm and emission at 535 nm.
# Channel inhibition was calculated compared to a non-PS stimulated control versus a condition stimulated with PS (50 μM) with vehicle. The ability of the compounds of the invention to inhibit this activity was determined as: Percentage inhibition=[1-((RFU determined for sample with test compound present—RFU determined for sample with positive control inhibitor) divided by (RFU determined in the presence of vehicle—RFU determined for sample with positive control inhibitor))]*100.
# T1 sequence (J9SQF3 1-1709 isoform J9SQF3-12): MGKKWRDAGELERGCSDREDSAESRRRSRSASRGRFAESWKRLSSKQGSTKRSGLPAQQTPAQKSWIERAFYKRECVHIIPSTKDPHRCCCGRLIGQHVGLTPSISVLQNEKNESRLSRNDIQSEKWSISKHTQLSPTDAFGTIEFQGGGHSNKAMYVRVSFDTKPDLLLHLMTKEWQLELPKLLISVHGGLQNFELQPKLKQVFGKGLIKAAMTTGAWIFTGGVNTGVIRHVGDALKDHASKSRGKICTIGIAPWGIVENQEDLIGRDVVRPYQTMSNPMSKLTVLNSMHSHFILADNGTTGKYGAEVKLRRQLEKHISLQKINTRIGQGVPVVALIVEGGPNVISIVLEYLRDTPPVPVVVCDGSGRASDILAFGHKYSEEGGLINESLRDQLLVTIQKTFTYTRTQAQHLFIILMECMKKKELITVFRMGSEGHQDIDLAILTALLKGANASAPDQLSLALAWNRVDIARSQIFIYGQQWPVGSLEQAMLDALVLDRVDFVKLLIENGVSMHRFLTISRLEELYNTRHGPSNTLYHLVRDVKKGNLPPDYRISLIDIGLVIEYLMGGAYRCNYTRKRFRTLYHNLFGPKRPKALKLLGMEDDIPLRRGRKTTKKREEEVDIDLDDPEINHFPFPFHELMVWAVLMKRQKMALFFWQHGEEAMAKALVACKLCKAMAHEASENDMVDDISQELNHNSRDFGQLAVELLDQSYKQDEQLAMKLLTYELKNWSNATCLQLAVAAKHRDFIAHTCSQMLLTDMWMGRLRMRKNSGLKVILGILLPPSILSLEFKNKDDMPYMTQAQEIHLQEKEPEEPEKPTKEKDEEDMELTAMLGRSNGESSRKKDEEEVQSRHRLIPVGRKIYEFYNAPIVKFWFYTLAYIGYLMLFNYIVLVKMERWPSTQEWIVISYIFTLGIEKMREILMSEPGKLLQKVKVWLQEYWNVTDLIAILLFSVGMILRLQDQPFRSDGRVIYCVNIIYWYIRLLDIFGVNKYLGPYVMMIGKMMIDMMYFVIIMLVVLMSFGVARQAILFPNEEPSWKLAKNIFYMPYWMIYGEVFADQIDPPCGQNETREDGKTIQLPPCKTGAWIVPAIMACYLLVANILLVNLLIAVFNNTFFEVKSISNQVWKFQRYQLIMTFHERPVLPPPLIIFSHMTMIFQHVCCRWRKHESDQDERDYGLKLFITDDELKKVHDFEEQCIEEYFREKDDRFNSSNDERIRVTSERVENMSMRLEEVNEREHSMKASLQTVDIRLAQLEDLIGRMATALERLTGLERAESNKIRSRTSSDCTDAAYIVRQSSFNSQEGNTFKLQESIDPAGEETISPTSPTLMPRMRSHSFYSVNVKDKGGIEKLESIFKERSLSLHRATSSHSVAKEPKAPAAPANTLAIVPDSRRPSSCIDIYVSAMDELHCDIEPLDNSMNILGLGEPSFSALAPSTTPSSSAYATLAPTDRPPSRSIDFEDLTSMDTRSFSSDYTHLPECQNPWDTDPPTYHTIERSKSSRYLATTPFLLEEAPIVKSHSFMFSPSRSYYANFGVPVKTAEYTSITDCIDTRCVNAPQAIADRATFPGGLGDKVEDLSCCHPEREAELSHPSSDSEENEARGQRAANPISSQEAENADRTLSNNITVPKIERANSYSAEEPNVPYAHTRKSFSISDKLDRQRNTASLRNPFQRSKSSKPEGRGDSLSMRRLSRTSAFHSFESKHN
row,IC50 [nM],Structure (SMILES)
1,≤ 1000,"Cc1ncsc1COc1ccc2oc(C)c(C(=O)NC(CO)C(=O)N(C)C)c2c1 (single isomer, unassigned) [411 - En 1]"
2,≤ 1000,"Cc1ncc(COc2ccc3oc(C)c(C(=O)NC(CO)CN(C)C)c3c2)s1 (single isomer, unassigned) [412 - En 1]"
3,≤ 1000,"Cc1oc2ccc(OCc3ccnn3C)cc2c1C(=O)NC(C)C(N)=O (single isomer, unassigned) [433 - En 1]"
4,≤ 1000,"Cc1oc2ccc(OCc3cccnc3O)cc2c1C(=O)NC(C)C(N)=O (single isomer, unassigned) [436 - En 1]"
5,≤ 1000,"COc1ncccc1COc1ccc2oc(C)c(C(=O)NC(C)C(N)=O)c2c1 (single isomer, unassigned) [437 - En 1]"
6,≤ 1000,"Cc1ncc(COc2ccc3oc(C)c(C(=O)NC(CN(C)C4CC4)C(N)=O)c3c2)s1 (single isomer, unassigned) [445 - En 1]"
7,1000 to 20000,"Cc1ncc(COc2ccc3oc(C)c(C(=O)NC(CN(C)C4CC4)C(N)=O)c3c2)s1 (single isomer, unassigned) [445 - En 2]"
8,≤ 1000,"Cc1ncsc1COc1ccc2oc(C)c(C(=O)NC(CN(C)C3CC3)C(N)=O)c2c1 (single isomer, unassigned) [446 - En 1]"
9,1000 to 20000,"Cc1ncsc1COc1ccc2oc(C)c(C(=O)NC(CN(C)C3CC3)C(N)=O)c2c1 (single isomer, unassigned) [446 - En 2]"
10,≤ 1000,"Cc1ncc(COc2ccc3oc(C)c(C(=O)NC(CN(C)C)C(N)=O)c3c2)s1 (single isomer, unassigned) [449 - En 1]"
11,≤ 1000,"Cc1ncsc1COc1ccc2oc(C)c(C(=O)NC(CN(C)C)C(N)=O)c2c1 (single isomer, unassigned) [450 - En 1]"
12,≤ 1000,"Cc1oc2ccc(OCc3nccn3C)cc2c1C(=O)NC(CO)C(N)=O (single isomer, unassigned) [451 - En 1]"
13,1000 to 20000,"Cc1oc2ccc(OCc3nccn3C)cc2c1C(=O)NC(CO)C(N)=O (single isomer, unassigned) [451 - En 2]"
14,≤ 1000,"Cc1oc2ccc(OCc3ccnn3C)cc2c1C(=O)NC(CO)C(N)=O (single isomer, unassigned) [452 - En 1]"
15,≤ 1000,"Cc1oc2ccc(OCc3ccnn3CC(F)F)cc2c1C(=O)NC(CO)C(N)=O (single isomer, unassigned) [456 - En 1]"
16,≤ 1000,"Cc1oc2ccc(OCc3cccnc3C(F)F)cc2c1C(=O)NC(CO)C(N)=O (single isomer, unassigned) [457 - En 1]"
17,≤ 1000,"Cc1nc(C)c(COc2ccc3oc(C)c(C(=O)NC(CO)C(N)=O)c3c2)s1 (single isomer, unassigned) [458 - En 1]"
18,≤ 1000,"Cc1oc2ccc(OCc3cccnc3O)cc2c1C(=O)NC(CO)C(N)=O (single isomer, unassigned) [459 - En 1]"
19,≤ 1000,"Cc1ncccc1COc1ccc2oc(C)c(C(=O)NC(C)(CO)C(N)=O)c2c1 (single isomer, unassigned) [461 - En 1]"
20,≤ 1000,"Cc1ncc(COc2ccc3oc(C)c(C(=O)NC(C)(CO)C(N)=O)c3c2)s1 (single isomer, unassigned) [462 - En 1]"
21,≤ 1000,"Cc1ncsc1COc1ccc2oc(C)c(C(=O)NC(C)(CO)C(N)=O)c2c1 (single isomer, unassigned) [463 - En 2]"
22,≤ 1000,"Cc1ccc(COc2ccc3oc(C)c(C(=O)NC(C)(CO)C(N)=O)c3c2)cn1 (single isomer, unassigned) [464 - En 1]"
23,≤ 1000,"COCC(NC(=O)c1c(C)oc2ccc(OCc3scnc3C)cc12)C(N)=O (single isomer, unassigned) [467 - En 1]"
24,≤ 1000,"COCC(C)(NC(=O)c1c(C)oc2ccc(OCc3scnc3C)cc12)C(N)=O (single isomer, unassigned) [468 - En 1]"
25,1000 to 20000,"Cc1ncc(COc2ccc3oc(C)c(C(=O)NC(CO)CN4CCOCC4)c3c2)s1 (single isomer, unassigned) [487 - En 1]"
26,≤ 1000,"Cc1ncsc1COc1ccc2oc(C)c(C(=O)NC(CO)CN3CCOCC3)c2c1 (single isomer, unassigned) [488 - En 1]"
27,1000 to 20000,"Cc1ncsc1COc1ccc2oc(C)c(C(=O)NC(CO)CN3CCOCC3)c2c1 (single isomer, unassigned) [488 - En 2]"

# Same assay, conditions: PS (50 μM) stimulated, cpds. 500-599
row,IC50 [nM],Structure (SMILES)
1,≤ 1000,"Cc1ccc(COc2ccc3oc(C)c(C(=O)NC4(CO)CCNC4=O)c3c2)cn1 (single isomer, unassigned) [519 - En 1]"
2,≤ 1000,"Cc1oc2ccc(OCc3ccccn3)cc2c1C(=O)NC1(CO)CCNC1=O (single isomer, unassigned) [520 - En 1]"
3,≤ 1000,"Cc1oc2ccc(OCc3ccccn3)cc2c1C(=O)NC1(CO)CCNC1=O (single isomer, unassigned) [520 - En 2]"
4,≤ 1000,"Cc1oc2ccc(OCc3cccnc3O)cc2c1C(=O)NC1(CO)CCNC1=O (single isomer, unassigned) [521 - En 1]"
5,1000 to 20000,"Cc1oc2ccc(OCc3cccnc3O)cc2c1C(=O)NC1(CO)CCNC1=O (single isomer, unassigned) [521 - En 2]"
6,≤ 1000,"COc1ncccc1COc1ccc2oc(C)c(C(=O)NC3(CO)CCNC3=O)c2c1 (single isomer, unassigned) [522 - En 1]"
7,1000 to 20000,"Cc1oc2ccc(OCc3cccn(C)c3=O)cc2c1C(=O)NC1CCNCC1(F)F (single isomer, unassigned) [544 - En 1]"
8,1000 to 20000,"Cc1oc2ccc(OCc3cccc(O)n3)cc2c1C(=O)NC1CCNCC1(F)F (single isomer, unassigned) [569 - En 1, N-(3,3-difluoropiperidin-4-yl)-2-methyl-5-((6-oxo-1,6-dihydropyridin-2-yl)methoxy)benzofuran-3-carboxamide]"
9,≥ 20000,"Cc1oc2ccc(OCc3cccc(O)n3)cc2c1C(=O)NC1CCNCC1(F)F (single isomer, unassigned) [569 - En 2, N-(3,3-difluoropiperidin-4-yl)-2-methyl-5-((6-oxo-1,6-dihydropyridin-2-yl)methoxy)benzofuran-3-carboxamide]"
10,≤ 1000,"Cc1ncc(COc2ccc3oc(C)c(C(=O)NC4(C(N)=O)CCCOC4)c3c2)s1 (single isomer, unassigned) [590 - En 1]"
11,≤ 1000,"Cc1ncccc1COc1ccc2oc(C)c(C(=O)NC3(C(N)=O)CCOC3)c2c1 (single isomer, unassigned) [591 - En 1]"
12,≤ 1000,"Cc1ncccc1COc1ccc2oc(C)c(C(=O)NC3(C(N)=O)CCOC3)c2c1 (single isomer, unassigned) [591 - En 2]"
13,≤ 1000,"Cc1ncc(COc2ccc3oc(C)c(C(=O)NC4(C(N)=O)CCOC4)c3c2)s1 (single isomer, unassigned) [592 - En 1]"
14,≤ 1000,"Cc1ncsc1COc1ccc2oc(C)c(C(=O)NC3(C(N)=O)CCOC3)c2c1 (single isomer, unassigned) [593 - En 1]"
15,≤ 1000,"Cc1ccc(COc2ccc3oc(C)c(C(=O)NC4(C(N)=O)CCOC4)c3c2)cn1 (single isomer, unassigned) [594 - En 1]"
16,≤ 1000,"Cc1ccc(COc2ccc3oc(C)c(C(=O)NC4(C(N)=O)CCOC4)c3c2)cn1 (single isomer, unassigned) [594 - En 2]"
17,≤ 1000,"Cc1oc2ccc(OCc3ccccn3)cc2c1C(=O)NC1(C(N)=O)CCOC1 (single isomer, unassigned) [595 - En 1]"
18,≤ 1000,"COc1ncccc1COc1ccc2oc(C)c(C(=O)NC3(C(N)=O)CCOC3)c2c1 (single isomer, unassigned) [597 - En 1]"
19,≤ 1000,"Cc1oc2ccc(OCc3c(F)cnn3C)cc2c1C(=O)NC1(C(N)=O)CCOC1 (single isomer, unassigned) [598 - En 1]"

# Further lines, the molecule ahead of its results:
row,Structure (SMILES),IC50 [nM]
1,"Cc1oc2ccc(OCc3cccnc3C(F)(F)F)cc2c1C(=O)NC1(CO)CCCNC1=O (single isomer, unassigned) [510 - En 1]",≤ 1000
2,"Cc1ncc(COc2ccc3oc(C)c(C(=O)NC4(CO)CCCNC4=O)c3c2)o1 (single isomer, unassigned) [511 - En 1]",≤ 1000
3,"Cc1ncc(COc2ccc3oc(C)c(C(=O)NC4(CO)CCCNC4=O)c3c2)o1 (single isomer, unassigned) [511 - En 2]",1000 to 20000
4,"Cc1ncccc1COc1ccc2oc(C)c(C(=O)NC3(CO)CCCNC3=O)c2c1 (single isomer, unassigned) [512 - En 1]",≤ 1000
5,"Cc1ncsc1COc1ccc2oc(C)c(C(=O)NC3(CO)CCCNC3=O)c2c1 (single isomer, unassigned) [513 - En 1]",≤ 1000
6,"Cc1ccc(COc2ccc3oc(C)c(C(=O)NC4(CO)CCCNC4=O)c3c2)cn1 (single isomer, unassigned) [514 - En 1]",≤ 1000
7,"Cc1ncccc1COc1ccc2oc(C)c(C(=O)NC3(CO)CCNC3=O)c2c1 (single isomer, unassigned) [516 - En 1]",≤ 1000
8,"Cc1ncsc1COc1ccc2oc(C)c(C(=O)NC3(CO)CCNC3=O)c2c1 (single isomer, unassigned) [518 - En 1]",≤ 1000
